Reference: publication PMC12935787, “Clinical pharmacokinetics and pharmacometabolomics of Andrographis paniculata capsules: Bridging drug disposition and metabolic response to precision medicine” (Naunyn-Schmiedeberg's Archives of Pharmacology, 2025)

These compounds were tested on Human metabolic pathways (KEGG) (assay: Urine pharmacometabolomics, peaks-to-pathway mummichog analysis). Details: urinary PMx analysis, 1000 mg and 2000 mg AP (either dose).
Format: in vivo, human (healthy volunteers)
Experimental: The protocol was published (Tee et al. [2022]).
Plasma samples (blank and subject) were thawed from −80 °C and processed using cold protein precipitation (200 μL plasma + 600 μL acetone:acetonitrile:methanol [1:1:1]). After −20 °C incubation (1 h) and centrifugation (10,000 rpm, 4 °C, 10 min), supernatants were filtered (0.22 μm) into LC–MS vials. System suitability test using vendor-provided internal standards ensured instrument performance parameters met acceptance criteria prior to metabolomics analysis. Samples (plasma and urine) were prepared in four batches. Each batch was analyzed separately in positive and negative ionization modes using a global metabolomics approach, resulting in eight analytical batches. Each analytical batch commenced with blank water, blank water spiked with internal standard (IS), and blank plasma or urine (with and without IS), all meeting the acceptance criteria in Figure S6 and Figure S7. Five pooled quality control (PQC) samples were analyzed at batch start, with additional PQCs interspersed after every fourth subject sample to monitor LC–MS system stability. Chromatogram overlays of all PQCs for every batch were assessed for consistency and instrument stability. Overlays of PQCs with subject samples were also evaluated in Figure S8. All eight batches met predefined acceptance criteria prior to data processing.
Dose-dependent PMx analyses compared pre-dose (T0) with post-dose time points (T2.5, T3, T3.5) for plasma and pre-dose (U0) with post-dose intervals (0–4 h [U1], 4–8 h [U2], 8–12 h [U3]) for urine, using positive and negative ion mode acquisition.
PCA results for pre- and post-dose urine samples were obtained by performing similar statistical and multivariate analyses of metabolite data (Figure S5). Batch effects were not observed in the normalized datasets for both positive and negative modes at either dose. All urine samples were successfully analyzed, except for samples U13 and U14 for the 1000 mg AP dose in positive mode, which were not captured due to a power supply issue with the LC–MS during the analysis.

Structure (SMILES)	free compound detected in urine
C=C1CC[C@@H]2[C@](C)(CO[C@@H]3O[C@H](CO)[C@@H](O)[C@H](O)[C@H]3O)CCC[C@@]2(C)[C@@H]1CCC1=CCOC1=O [neoandrographolide]	detected no free
C=C1CC[C@@H]2[C@](C)(CO)[C@H](O)CC[C@@]2(C)[C@@H]1C/C=C1/C(=O)OC[C@H]1O [andrographolide]	detected no free
C=C1CC[C@@H]2[C@](C)(CO)[C@H](O)CC[C@@]2(C)[C@@H]1CCC1=CCOC1=O [14-deoxyandrographolide]	detected no free
